Laboratory results taken from US20110230481A2, “DERIVATIVES OF TETRABROMOBENZIMIDAZOLE, A PROCESS FOR THE PREPARATION THEREOF, A PHARMACEUTICAL COMPOSITION COMPRISING THE SAME, A METHOD OF USING THE SAME, A METHOD FOR MODULATING OR REGULATING SERINE/THREONINE KINASES, AND SERINE/THREONINE KINASES MODULATING AGENT” (SELVITA S.A., priority 2009, published 2011).

Experiments:
[1] = molecular target: T1, EPHB4 (Homo sapiens, UniProt P54760); assay: KINOMEscan Max; type: binding
T1 construct: purchased Ambit (KINOMEscan Max panel service)
Description: (§1) Kinase panel profiling was performed at Ambit Kinomescan (http://www.ambitbio.com/technology/) using the “KINOMEscan™ Max” assay platform, a high-throughput method for screening small molecule compounds against large numbers of human kinases. KINOMEscan™ is based on a competition binding assay that quantitatively measures the ability of a compound to compete with an immobilized, active-site directed ligand. The assay is performed by combining three components: DNA-tagged kinase; immobilized ligand; and a test compound. The ability of the test compound to compete with the immobilized ligand is measured via quantitative PCR of the DNA tag. For a description of Ambit's assay protocol, see Fabian et al. A small molecule-kinase interaction map for clinical kinase inhibitors. Nat. Biotechnol. 23, 329-336 (2005).

[2] = molecular target: T2, PIK3C2G (Homo sapiens, UniProt O75747); assay: KINOMEscan Max; type: binding
T2 construct: DNA tag (qPCR read-out)
Description: as §1

[3] = molecular target: T3, INSR (Homo sapiens, UniProt P06213); assay: KINOMEscan Max; type: binding
T3 construct: DNA tag (qPCR read-out)
Description: as §1

[4] = molecular target: T4, EGFR(L747-T751del.Sins) (Homo sapiens, UniProt P00533, DEL747-750/T751S); assay: KINOMEscan Max; type: binding; conditions: 1 μM
T4 construct: purchased Ambit (KINOMEscan Max panel service)
T4 sequence (P00533 with tags, fused parts or gaps DEL747-750/T751S limits assumed): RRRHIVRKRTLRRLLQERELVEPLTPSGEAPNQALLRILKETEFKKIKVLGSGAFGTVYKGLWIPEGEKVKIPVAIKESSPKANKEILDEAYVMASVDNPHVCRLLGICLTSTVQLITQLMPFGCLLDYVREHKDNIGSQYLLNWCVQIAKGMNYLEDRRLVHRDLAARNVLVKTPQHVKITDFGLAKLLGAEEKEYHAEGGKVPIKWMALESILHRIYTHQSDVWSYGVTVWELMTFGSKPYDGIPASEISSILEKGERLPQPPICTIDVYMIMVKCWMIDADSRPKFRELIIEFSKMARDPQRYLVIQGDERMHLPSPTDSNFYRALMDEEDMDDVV
Description: as §1

[5] = molecular target: T5, AKT1 (Homo sapiens, UniProt P31749); assay: KINOMEscan Max; type: binding
T5 construct: purchased Ambit (KINOMEscan Max service)
Description: as §1

[6] = molecular target: T6, PKN1 (Homo sapiens, UniProt Q16512); assay: KINOMEscan Max; type: binding
T6 construct: DNA tag (qPCR read-out)
Description: as §1

[7] = molecular target: T7, LCK (Homo sapiens, UniProt P06239); assay: KINOMEscan Max; type: binding
T7 construct: purchased Ambit Kinomescan (contract panel)
T7 sequence (P06239 whole entry): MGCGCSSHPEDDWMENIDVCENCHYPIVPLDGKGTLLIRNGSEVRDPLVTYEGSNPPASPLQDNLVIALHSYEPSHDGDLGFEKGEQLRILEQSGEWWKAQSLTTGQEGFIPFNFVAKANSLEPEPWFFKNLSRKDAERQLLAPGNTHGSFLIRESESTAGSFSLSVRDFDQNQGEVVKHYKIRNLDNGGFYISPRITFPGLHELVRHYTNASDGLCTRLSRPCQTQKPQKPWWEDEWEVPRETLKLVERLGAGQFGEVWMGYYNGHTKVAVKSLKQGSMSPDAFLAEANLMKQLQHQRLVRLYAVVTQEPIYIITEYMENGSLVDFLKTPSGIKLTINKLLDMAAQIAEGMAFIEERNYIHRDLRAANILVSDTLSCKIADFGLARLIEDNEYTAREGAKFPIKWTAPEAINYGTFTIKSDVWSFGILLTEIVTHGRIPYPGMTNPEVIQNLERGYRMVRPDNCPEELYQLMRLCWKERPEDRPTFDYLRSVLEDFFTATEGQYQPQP
Description: as §1

[8] = molecular target: T8, MET (Homo sapiens, UniProt P08581); assay: KINOMEscan Max; type: binding; conditions: 1 μM
T8 construct: purchased Ambit Kinomescan (contract screening)
Description: as §1

[9] = molecular target: T9, ABL1(F317L)-nonphosphorylated (Homo sapiens, UniProt P00519, F317L); assay: KINOMEscan Max; type: binding
T9 construct: purchased Ambit (KINOMEscan Max service)
Description: as §1

[10] = molecular target: CSNK1A1L (Homo sapiens, UniProt Q8N752); assay: KINOMEscan Max; type: binding
Description: as §1

[11] = molecular target: T10, CHEK1 (Homo sapiens, UniProt O14757); assay: KINOMEscan Max; type: binding; conditions: 1 μM
T10 construct: DNA tag (qPCR read-out)
Description: as §1

[12] = molecular target: T11, ERK1 (Homo sapiens, UniProt P27361); assay: KINOMEscan Max; type: binding
T11 construct: purchased Ambit Kinomescan (contract panel, KINOMEscan Max)
Description: as §1

[13] = molecular target: T12, TTK (Homo sapiens, UniProt P33981); assay: KINOMEscan Max; type: binding
T12 construct: purchased Ambit Kinomescan (contract screening service)
T12 sequence (P33981 whole entry): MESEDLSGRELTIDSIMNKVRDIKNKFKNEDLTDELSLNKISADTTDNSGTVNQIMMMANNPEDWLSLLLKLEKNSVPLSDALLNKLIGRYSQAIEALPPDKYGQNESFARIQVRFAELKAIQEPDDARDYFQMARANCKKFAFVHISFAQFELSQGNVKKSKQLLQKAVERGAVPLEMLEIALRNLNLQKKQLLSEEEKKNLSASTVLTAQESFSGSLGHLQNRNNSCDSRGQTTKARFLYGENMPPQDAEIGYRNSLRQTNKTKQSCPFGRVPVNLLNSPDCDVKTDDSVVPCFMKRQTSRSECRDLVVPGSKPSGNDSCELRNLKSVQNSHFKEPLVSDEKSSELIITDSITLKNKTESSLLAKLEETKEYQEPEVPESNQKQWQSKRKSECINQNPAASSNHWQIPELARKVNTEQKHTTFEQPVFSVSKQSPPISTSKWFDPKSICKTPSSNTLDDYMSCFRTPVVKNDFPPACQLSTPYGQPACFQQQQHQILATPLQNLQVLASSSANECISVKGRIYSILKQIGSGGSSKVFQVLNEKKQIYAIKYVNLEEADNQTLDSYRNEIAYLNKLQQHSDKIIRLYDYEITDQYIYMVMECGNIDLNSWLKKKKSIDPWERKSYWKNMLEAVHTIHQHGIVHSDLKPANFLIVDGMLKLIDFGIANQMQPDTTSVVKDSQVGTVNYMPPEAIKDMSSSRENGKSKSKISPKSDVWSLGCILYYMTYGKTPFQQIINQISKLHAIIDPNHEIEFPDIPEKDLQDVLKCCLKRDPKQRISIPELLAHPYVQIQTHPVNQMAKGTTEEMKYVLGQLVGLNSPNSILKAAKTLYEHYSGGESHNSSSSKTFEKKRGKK
Description: as §1

[14] = molecular target: T13, RIOK3 (Homo sapiens, UniProt O14730); assay: KINOMEscan Max; type: binding
T13 construct: DNA tag (qPCR read-out)
Description: as §1

[15] = molecular target: CSNK1G3 (Homo sapiens, UniProt Q9Y6M4); assay: KINOMEscan Max; type: binding; conditions: 1 μM
Sequence of CSNK1G3 (Q9Y6M4 whole entry): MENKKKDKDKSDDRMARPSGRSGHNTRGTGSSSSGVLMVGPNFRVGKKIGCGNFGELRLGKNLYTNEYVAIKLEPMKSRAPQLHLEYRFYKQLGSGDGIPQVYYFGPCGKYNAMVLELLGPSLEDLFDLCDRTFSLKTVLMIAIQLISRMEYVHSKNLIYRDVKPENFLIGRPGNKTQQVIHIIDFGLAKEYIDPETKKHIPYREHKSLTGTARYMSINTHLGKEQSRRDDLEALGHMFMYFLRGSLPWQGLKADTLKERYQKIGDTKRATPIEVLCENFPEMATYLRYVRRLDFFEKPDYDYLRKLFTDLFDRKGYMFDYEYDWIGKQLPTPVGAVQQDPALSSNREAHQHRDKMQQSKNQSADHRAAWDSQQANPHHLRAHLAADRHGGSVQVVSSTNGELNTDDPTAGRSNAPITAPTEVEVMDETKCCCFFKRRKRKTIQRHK
Description: as §1

[16] = molecular target: T14, CLK3 (Homo sapiens, UniProt P49761); assay: KINOMEscan Max; type: binding
T14 construct: purchased Ambit (KINOMEscan Max service)
T14 sequence (P49761 whole entry): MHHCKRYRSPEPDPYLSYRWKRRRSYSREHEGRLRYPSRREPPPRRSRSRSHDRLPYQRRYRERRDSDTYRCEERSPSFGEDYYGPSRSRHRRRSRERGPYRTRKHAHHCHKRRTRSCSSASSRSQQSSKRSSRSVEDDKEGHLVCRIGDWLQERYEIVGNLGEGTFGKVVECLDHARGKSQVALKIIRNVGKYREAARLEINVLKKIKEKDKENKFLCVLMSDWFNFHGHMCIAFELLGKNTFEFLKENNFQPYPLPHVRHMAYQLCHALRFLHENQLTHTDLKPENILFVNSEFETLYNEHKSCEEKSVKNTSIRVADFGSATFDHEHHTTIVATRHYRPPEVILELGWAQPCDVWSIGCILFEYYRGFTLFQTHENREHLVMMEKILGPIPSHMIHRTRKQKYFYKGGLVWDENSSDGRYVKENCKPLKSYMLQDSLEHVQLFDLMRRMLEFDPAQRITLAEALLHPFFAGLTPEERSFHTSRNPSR
Description: as §1

[17] = molecular target: T15, AAK1 (Homo sapiens, UniProt Q2M2I8); assay: KINOMEscan Max; type: binding
T15 construct: purchased Ambit Kinomescan (contract screening)
Description: as §1

[18] = molecular target: MEK6 (Homo sapiens, UniProt P52564); assay: KINOMEscan Max; type: binding
Sequence of MEK6 (P52564 whole entry): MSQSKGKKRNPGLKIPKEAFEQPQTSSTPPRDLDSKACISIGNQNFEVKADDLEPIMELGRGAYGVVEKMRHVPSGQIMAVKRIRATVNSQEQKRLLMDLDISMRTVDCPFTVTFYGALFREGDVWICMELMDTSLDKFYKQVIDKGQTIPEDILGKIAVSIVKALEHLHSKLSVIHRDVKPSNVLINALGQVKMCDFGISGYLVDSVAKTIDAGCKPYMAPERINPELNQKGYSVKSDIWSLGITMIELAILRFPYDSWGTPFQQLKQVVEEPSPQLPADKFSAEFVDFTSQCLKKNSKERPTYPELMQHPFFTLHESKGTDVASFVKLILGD
Description: as §1

[19] = molecular target: T16, CDKL1 (Homo sapiens, UniProt Q00532); assay: KINOMEscan Max; type: binding
T16 construct: DNA tag (qPCR label); purchased Ambit Kinomescan (contract screening)
Description: as §1

[20] = molecular target: MST1R (Homo sapiens, UniProt Q04912); assay: KINOMEscan Max; type: binding
Sequence of MST1R (Q04912 25-1400): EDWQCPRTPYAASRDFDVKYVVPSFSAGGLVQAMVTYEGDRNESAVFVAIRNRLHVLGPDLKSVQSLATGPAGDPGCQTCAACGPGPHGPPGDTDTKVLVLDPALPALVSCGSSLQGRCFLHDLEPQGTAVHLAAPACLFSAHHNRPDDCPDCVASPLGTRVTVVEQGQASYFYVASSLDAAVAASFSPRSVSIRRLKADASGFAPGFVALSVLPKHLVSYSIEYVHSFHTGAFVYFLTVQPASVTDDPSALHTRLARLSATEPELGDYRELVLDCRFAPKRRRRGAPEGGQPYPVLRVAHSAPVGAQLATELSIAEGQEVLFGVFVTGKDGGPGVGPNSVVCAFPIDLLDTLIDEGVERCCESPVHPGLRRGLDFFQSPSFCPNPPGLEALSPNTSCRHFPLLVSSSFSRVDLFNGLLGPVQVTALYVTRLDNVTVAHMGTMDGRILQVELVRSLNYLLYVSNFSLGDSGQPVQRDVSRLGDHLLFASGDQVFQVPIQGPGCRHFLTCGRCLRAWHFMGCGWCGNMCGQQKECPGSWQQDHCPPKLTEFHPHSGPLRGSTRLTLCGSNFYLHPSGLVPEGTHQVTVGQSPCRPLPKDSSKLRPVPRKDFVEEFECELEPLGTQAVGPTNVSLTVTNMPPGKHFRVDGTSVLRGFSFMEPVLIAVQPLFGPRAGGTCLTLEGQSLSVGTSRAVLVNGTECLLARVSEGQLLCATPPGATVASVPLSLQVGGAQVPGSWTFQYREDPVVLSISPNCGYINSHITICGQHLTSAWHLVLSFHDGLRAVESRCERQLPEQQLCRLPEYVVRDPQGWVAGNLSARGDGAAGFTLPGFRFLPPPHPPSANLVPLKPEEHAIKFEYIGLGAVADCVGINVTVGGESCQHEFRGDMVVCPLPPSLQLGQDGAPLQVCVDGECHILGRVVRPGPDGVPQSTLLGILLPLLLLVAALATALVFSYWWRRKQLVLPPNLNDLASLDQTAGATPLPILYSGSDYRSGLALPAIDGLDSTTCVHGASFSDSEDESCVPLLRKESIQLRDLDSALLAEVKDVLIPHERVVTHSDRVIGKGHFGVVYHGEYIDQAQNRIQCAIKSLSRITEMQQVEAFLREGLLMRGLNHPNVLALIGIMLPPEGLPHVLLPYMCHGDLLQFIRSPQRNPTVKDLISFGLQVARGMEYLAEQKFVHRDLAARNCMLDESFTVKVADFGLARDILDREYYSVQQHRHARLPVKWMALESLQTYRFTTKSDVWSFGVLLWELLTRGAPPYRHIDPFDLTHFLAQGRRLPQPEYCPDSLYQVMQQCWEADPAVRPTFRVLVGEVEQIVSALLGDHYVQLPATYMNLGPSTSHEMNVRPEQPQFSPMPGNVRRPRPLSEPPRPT
Description: as §1

[21] = molecular target: T17, CSNK2A2 (Homo sapiens, UniProt P19784); assay: KINOMEscan Max; type: binding
T17 construct: DNA tag (qPCR read-out)
Description: as §1

[22] = molecular target: PIM3 (Homo sapiens, UniProt Q86V86); assay: KINOMEscan Max; type: binding; set-up: DNA tag (qPCR read-out); purchased Ambit Kinomescan
Description: as §1

[23] = molecular target: PIM1 (Homo sapiens, UniProt P11309); assay: KINOMEscan Max; type: binding; set-up: DNA tag (qPCR read-out); purchased Ambit Kinomescan
Description: as §1

[24] = molecular target: PIM2 (Homo sapiens, UniProt Q9P1W9); assay: KINOMEscan Max; type: binding; set-up: DNA tag (qPCR read-out); purchased Ambit Kinomescan
Description: as §1

[25] = molecular target: CLK1 (Homo sapiens, UniProt P49759); assay: KINOMEscan Max; type: binding; set-up: DNA tag (qPCR read-out); purchased Ambit Kinomescan
Sequence of CLK1 (P49759 whole entry): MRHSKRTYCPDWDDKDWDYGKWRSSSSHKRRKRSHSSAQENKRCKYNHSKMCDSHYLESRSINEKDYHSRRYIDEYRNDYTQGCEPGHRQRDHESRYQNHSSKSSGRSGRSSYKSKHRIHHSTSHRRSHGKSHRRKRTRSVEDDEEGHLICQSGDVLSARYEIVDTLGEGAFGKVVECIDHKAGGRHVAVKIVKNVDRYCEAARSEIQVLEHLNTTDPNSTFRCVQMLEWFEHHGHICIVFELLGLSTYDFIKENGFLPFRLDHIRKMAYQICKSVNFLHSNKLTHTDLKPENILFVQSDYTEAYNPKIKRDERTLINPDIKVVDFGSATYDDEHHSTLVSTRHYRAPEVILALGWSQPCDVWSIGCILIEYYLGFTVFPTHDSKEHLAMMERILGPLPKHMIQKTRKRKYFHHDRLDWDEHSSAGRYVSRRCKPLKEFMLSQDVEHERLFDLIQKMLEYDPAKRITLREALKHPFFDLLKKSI
Description: as §1

[26] = tested on: panel of 440 kinases; assay: KINOMEscan Max, whole panel; type: binding, human; conditions: 1 μM
Description: as §1
Selectivity of kinase inhibition is one of the key parameters in therapeutic use of this class of compounds. Off-target inhibition could be one of the major safety and toxicity issues in drug development and use of the compounds for treatment of various disease conditions. For this reason, development of selective kinase inhibitors is desired, to limit possible adverse effects. Therefore compounds disclosed in the application were tested on a panel of 440 kinases to determine specificity in PIM kinase inhibition. Table 5 provides selectivity data for representative compound N-(3-aminopropyl)-4,5,6,7-tetrabromo-1H-benzo[d]imidazol-2-amine (compound 11). As indicated in the Table 5 when tested at 1 μM concentration N-(3-aminopropyl)-4,5,6,7-tetrabromo-1H-benzo[d]imidazol-2-amine inhibited substrate biding of only 12 kinases (2% of the whole panel)>90%, whereas for over 93% of the tested kinases in the panel, substrate binding was basically not affected by compound 11. Pim kinases, but also HIPK, DYRK and CLK kinases and FTL3 mutants were identified as the primary targets for inhibition by compound 11 and selectivity for Pim kinases over other kinases was further confirmed in radiometric kinase assays.

## NCCCNc1nc2c(Br)c(Br)c(Br)c(Br)c2[nH]1 [Compound 11, N-(3-aminopropyl)-4,5,6,7-tetrabromo-1H-benzo[d]imidazol-2-amine]
[1]
  remaining binding at 1 µM: 100%
[2]
  remaining binding at 1 µM: 100%
[3]
  remaining binding at 1 µM: 41%
[4]
  % binding: 100%
[5]
  remaining binding at 1 µM: 70%
[6]
  remaining binding at 1 µM: 100%
[7]
  remaining binding at 1 µM: 100%
[8]
  % binding: 97%
[9]
  remaining binding at 1 µM: 67%
[10]
  remaining binding at 1 µM: 76%
[11]
  % binding: 88%
[12]
  remaining binding at 1 µM: 100%
[13]
  remaining binding at 1 µM: 100%
[14]
  remaining binding at 1 µM: 52%
[15]
  % binding: 92%
[16]
  remaining binding at 1 µM: 70%
[17]
  remaining binding at 1 µM: 97%
[18]
  remaining binding at 1 µM: 100%
[19]
  remaining binding at 1 µM: 100%
[20]
  remaining binding at 1 µM: 100%
[21]
  remaining binding at 1 µM: 90%
[22]
  remaining binding at 1 µM: 5.2%
[23]
  remaining binding at 1 µM: 4%
[24]
  remaining binding at 1 µM: 0.85%
[25]
  remaining binding at 1 µM: 5.1%
[26]
  number of kinases with substrate binding inhibited >90%: 12
  share of tested kinases with substrate binding basically not affected: over 93%
  share of the whole panel with substrate binding inhibited >90%: 2%
